Here are results for 20 compounds from ChEMBL document CHEMBL4007481, “Synthesis and antibacterial activity of 3-benzylamide derivatives as FtsZ inhibitors” (Bioorg Med Chem Lett, 2017).

The structures appear in SMILES notation. Active and inactive are the calls of the source. The rule behind the calls is not given here.

One assay has as its system Pseudomonas aeruginosa. Kind of assay: Inhibition of FtsZ in Pseudomonas aeruginosa ATCC 9027 assessed as growth inhibition at 100 ug per disc after 18 to 24 hrs by paper disc agar diffusion assay. Background: A growth-free zone around the sample is the usual read-out of agar diffusion tests.
Assay [1] concerns Mycolicibacterium smegmatis. Kind of assay: Inhibition of FtsZ in Mycobacterium smegmatis ATCC 607 assessed as ratio of diameter of zone inhibition of test compound to diameter of zone inhibition of streptomycin at 100 ug per disc after 18 to 24 hrs by paper disc agar diffusion assay.
The test system of assay [2] is Escherichia coli ATCC 25922. Kind of assay: Inhibition of FtsZ in Escherichia coli ATCC 25922 assessed as growth inhibition at 100 ug per disc after 18 to 24 hrs by paper disc agar diffusion assay.
The test system of the next assay is Candida albicans. In words: Antifungal activity against Candida albicans ATCC 10231 at 100 ug per disc after 3 to 5 days by paper disc agar diffusion assay. The assay is classed as functional.
The next assay concerns Klebsiella aerogenes. In words: Inhibition of FtsZ in Klebsiella aerogenes ATCC 9621 assessed as growth inhibition at 100 ug per disc after 18 to 24 hrs by paper disc agar diffusion assay.
Assay [3] addresses T1, Cell division protein FtsZ (Staphylococcus aureus) (UniProt P0A031).
T1 sequence (whole entry): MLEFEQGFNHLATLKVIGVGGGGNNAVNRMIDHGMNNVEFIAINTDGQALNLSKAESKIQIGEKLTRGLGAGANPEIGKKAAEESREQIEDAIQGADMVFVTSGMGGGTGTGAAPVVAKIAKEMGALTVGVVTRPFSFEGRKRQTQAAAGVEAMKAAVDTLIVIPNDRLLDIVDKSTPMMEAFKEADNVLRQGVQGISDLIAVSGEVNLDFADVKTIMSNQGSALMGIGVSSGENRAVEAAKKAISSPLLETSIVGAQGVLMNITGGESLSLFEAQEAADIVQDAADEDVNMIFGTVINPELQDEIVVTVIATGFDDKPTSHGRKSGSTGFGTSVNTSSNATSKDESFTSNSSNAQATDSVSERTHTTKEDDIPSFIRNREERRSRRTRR
In words: Inhibition of FtsZ in Staphylococcus aureus ATCC 6538P assessed as ratio of diameter of zone inhibition of test compound to diameter of zone inhibition of cephaloridine at 100 ug per disc after 18 to 24 hrs by paper disc agar diffusion assay.

In assay [4] the test system is Bacillus subtilis subsp. spizizenii ATCC 6633 = JCM 2499. Kind of assay: Inhibition of FtsZ in Bacillus subtilis ATCC 6633 assessed as ratio of diameter of zone inhibition of test compound to diameter of zone inhibition of tetracycline at 100 ug per disc after 18 to 24 hrs by paper disc agar diffusion assay.
In a further assay the test system is Aspergillus niger. Kind of assay: Antifungal activity against Aspergillus niger ATCC 16404 at 100 ug per disc after 3 to 5 days by paper disc agar diffusion assay. The assay is classed as functional.
Assay [5] concerns the target T1, Cell division protein FtsZ (Staphylococcus aureus). Kind of assay: Inhibition of FtsZ in Staphylococcus aureus ATCC 6538P assessed as growth inhibition at 100 ug per disc after 18 to 24 hrs by paper disc agar diffusion assay.
The subject of assay [6] is Bacillus subtilis subsp. spizizenii ATCC 6633 = JCM 2499. Kind of assay: Inhibition of FtsZ in Bacillus subtilis ATCC 6633 assessed as growth inhibition at 100 ug per disc after 18 to 24 hrs by paper disc agar diffusion assay.
In assay [7] the test system is Mycolicibacterium smegmatis. In words: Inhibition of FtsZ in Mycobacterium smegmatis ATCC 607 assessed as growth inhibition at 100 ug per disc after 18 to 24 hrs by paper disc agar diffusion assay.

Take `NC(=O)c1c(F)ccc(OCCCOc2c(Cl)cc(Cl)c3cccnc23)c1F`: the inhibition entry (in the assay on Pseudomonas aeruginosa; in [2]; in the assay with Klebsiella aerogenes) was “inactive” in each case. Moreover, the Ratio was 0.2 in assay [1], 0.18 in assay [3] and 0.1 in assay [4]. For the same compound, the outcome in the assay on Candida albicans and with Aspergillus niger was inactive.
Take `NC(=O)c1c(F)ccc(OCCCOc2cccc3ccccc23)c1F`: the inhibition result (in the assay with Pseudomonas aeruginosa; in assay [5]; in assay [2]; in the assay on Klebsiella aerogenes; in [6]; in assay [7]) was “inactive” in each case. In addition, the result in the assay on Candida albicans and with Aspergillus niger was inactive.
Consider `NC(=O)c1c(F)ccc(OCCCOc2cccc3cccnc23)c1F`, for which the inhibition entry (in the assay on Pseudomonas aeruginosa; in assay [2]; in the assay on Klebsiella aerogenes; in assay [6]; in assay [7]) was “inactive” in each case. Moreover, the outcome in the assay on Candida albicans and with Aspergillus niger was inactive. For the same compound, the Ratio in assay [3] stood at 0.07.
As for `NS(=O)(=O)c1c(F)ccc(OCc2nc3cc(Cl)ccc3s2)c1F`, the inhibition entry (in the assay with Pseudomonas aeruginosa; in assay [5]; in [2]; in the assay on Klebsiella aerogenes; in [6]; in [7]) was “inactive” in each case. Also, the outcome in the assay on Candida albicans and with Aspergillus niger was inactive.
On to `Cc1ccc2cccc(OCCCOc3ccc(F)c(C(N)=O)c3F)c2n1`, for which the inhibition entry (in the assay on Pseudomonas aeruginosa; in assay [5]; in assay [2]; in the assay on Klebsiella aerogenes; in assay [6]; in [7]) was “inactive” in each case. The result with Candida albicans and in the assay on Aspergillus niger was inactive.
For `NC(=O)c1c(F)ccc(OCC(=O)Oc2ccccc2)c1F`, the inhibition entry (with Pseudomonas aeruginosa; in assay [2]; in the assay on Klebsiella aerogenes) was “inactive” each time. The Ratio in [1] came out at 0.5; in assay [3], 0.07; in assay [4] it was 0.19. For the same compound, the result in the assay on Candida albicans and with Aspergillus niger was inactive.
As for `Cc1ccc(OC(=O)COc2ccc(F)c(C(N)=O)c2F)cc1`, the inhibition entry (in the assay on Pseudomonas aeruginosa; in assay [2]; in the assay with Klebsiella aerogenes) was “inactive” each time. Also, the Ratio in assay [1] turned out to be 0.07; in assay [3], 0.25; in [4], 0.3. The result in the assay with Candida albicans and in the assay with Aspergillus niger was inactive.
Turning to `COc1ccc(OCCOC(=O)COc2ccc(F)c(C(N)=O)c2F)cc1`, the inhibition result (in the assay on Pseudomonas aeruginosa; in assay [5]; in assay [2]; in the assay with Klebsiella aerogenes) was “inactive” each time. Also, the Ratio was found to be 0.37 in assay [1] and 0.51 in assay [4]. In addition, the outcome in the assay with Candida albicans and in the assay on Aspergillus niger was inactive.
On to `NC(=O)c1c(F)ccc(OCc2nc3cc(Cl)cnc3s2)c1F`, for which the inhibition result in [6] and in assay [7] was “inactive” throughout. The Ratio in assay [3] stood at 1.2.
In the case of `NC(=O)c1c(F)ccc(OCC(=O)OCCOc2ccccc2)c1F`, the inhibition result (with Pseudomonas aeruginosa; in [2]; in the assay on Klebsiella aerogenes) was “inactive” in each case. In addition, the Ratio in assay [1] was 0.36; in assay [3], 0.18; in assay [4], 0.18. In addition, the result in the assay on Candida albicans and in the assay with Aspergillus niger was inactive.
Turning to `NC(=O)c1c(F)ccc(OCC(=O)OCCOc2ccc(F)cc2)c1F`, the inhibition entry (in the assay on Pseudomonas aeruginosa; in [2]; with Klebsiella aerogenes) was “inactive” throughout. Besides, the results for the Ratio in assay [1], in assay [3] and in assay [4] were 0.62, 0.44 and 0.18, respectively. Further, the outcome in the assay on Candida albicans and in the assay with Aspergillus niger was inactive.
As for `NS(=O)(=O)c1c(F)ccc(OCc2nc3cc(Cl)cnc3s2)c1F`, the inhibition result (with Pseudomonas aeruginosa; in assay [5]; in assay [2]; in the assay with Klebsiella aerogenes; in assay [6]; in assay [7]) was “inactive” each time. Besides, the result in the assay with Candida albicans and in the assay on Aspergillus niger was inactive.
In the case of `NC(=O)c1c(F)ccc(OCCC(=O)Oc2ccccc2)c1F`, the inhibition result (in the assay on Pseudomonas aeruginosa; in assay [2]; with Klebsiella aerogenes) was “inactive” throughout. Moreover, the result in the assay on Candida albicans and in the assay with Aspergillus niger was inactive. Besides, the results for the Ratio in [3] and in assay [4] were 0.41 and 0.3, respectively.
Regarding `NC(=O)c1c(F)ccc(OCCCOc2ccc(Cl)c3cccnc23)c1F`, the inhibition entry (in the assay on Pseudomonas aeruginosa; in assay [2]; in the assay with Klebsiella aerogenes; in assay [7]) was “inactive” each time. The result in the assay with Candida albicans and in the assay with Aspergillus niger was inactive. In addition, the values for the Ratio in [3] and in assay [4] were 0.25 and 0.1, respectively.
As to `NC(=O)c1c(F)ccc(OCC(=O)OCCOc2ccc(Br)cc2)c1F`, the inhibition entry (in the assay with Pseudomonas aeruginosa; in [2]; in the assay with Klebsiella aerogenes; in assay [7]) was “inactive” throughout. Also, the outcome with Candida albicans and in the assay with Aspergillus niger was inactive. Moreover, the results for the Ratio in assay [3] and in [4] were 0.22 and 0.15, respectively.
With `N#Cc1ccc(OCCOC(=O)COc2ccc(F)c(C(N)=O)c2F)cc1`, the inhibition entry (with Pseudomonas aeruginosa; in assay [5]; in assay [2]; in the assay with Klebsiella aerogenes; in assay [7]) was “inactive” each time. For the same compound, the outcome with Candida albicans and in the assay with Aspergillus niger was inactive. Besides, in [4], the Ratio was 0.11.
As for `Cc1ccc(OCCOC(=O)COc2ccc(F)c(C(N)=O)c2F)cc1`, the inhibition result (with Pseudomonas aeruginosa; in assay [2]; with Klebsiella aerogenes; in assay [7]) was “inactive” throughout. For the same compound, the outcome in the assay on Candida albicans and with Aspergillus niger was inactive. Further, the Ratio turned out to be 0.1 in assay [3] and 0.25 in [4].
As for `NC(=O)c1c(F)ccc(OCC(=O)OCc2ccccc2)c1F`, the inhibition entry (with Pseudomonas aeruginosa; in [5]; in assay [2]; with Klebsiella aerogenes; in assay [7]) was “inactive” each time. The outcome in the assay on Candida albicans and in the assay on Aspergillus niger was inactive. In addition, the Ratio in assay [4] was 0.18.
As for `NC(=O)c1c(F)ccc(OCC(=O)Nc2ccccc2)c1F`, the inhibition entry (in the assay with Pseudomonas aeruginosa; in [2]; in the assay with Klebsiella aerogenes; in assay [7]) was “inactive” each time. Moreover, the result with Candida albicans and with Aspergillus niger was inactive. The Ratio in assay [3] and in [4] was 0.1 in each case.
With `NC(=O)c1c(F)ccc(OCCCOc2ccc3ccccc3c2)c1F`, the inhibition entry (in the assay on Pseudomonas aeruginosa; in assay [5]; in assay [2]; in the assay with Klebsiella aerogenes; in assay [6]; in assay [7]) was “inactive” in each case. The result in the assay on Candida albicans and in the assay with Aspergillus niger was inactive.
